In patent publication US5620997A, “Isothiazolones” (Warner-Lambert Company, priority 1995, dated 1997):

The molecules below were run against T1, rabbit reticulocyte 15-LO (Oryctolagus cuniculus, UniProt P12530) (assay: HPLC Assay of 15-LO Inhibition). Conditions: HPLC method; linoleic acid substrate, 4° C., 10 minutes.
T1 construct: rabbit reticulocyte 15-LO; from tissue; host or cells: rabbit reticulocytes
T1 sequence (P12530 1-663): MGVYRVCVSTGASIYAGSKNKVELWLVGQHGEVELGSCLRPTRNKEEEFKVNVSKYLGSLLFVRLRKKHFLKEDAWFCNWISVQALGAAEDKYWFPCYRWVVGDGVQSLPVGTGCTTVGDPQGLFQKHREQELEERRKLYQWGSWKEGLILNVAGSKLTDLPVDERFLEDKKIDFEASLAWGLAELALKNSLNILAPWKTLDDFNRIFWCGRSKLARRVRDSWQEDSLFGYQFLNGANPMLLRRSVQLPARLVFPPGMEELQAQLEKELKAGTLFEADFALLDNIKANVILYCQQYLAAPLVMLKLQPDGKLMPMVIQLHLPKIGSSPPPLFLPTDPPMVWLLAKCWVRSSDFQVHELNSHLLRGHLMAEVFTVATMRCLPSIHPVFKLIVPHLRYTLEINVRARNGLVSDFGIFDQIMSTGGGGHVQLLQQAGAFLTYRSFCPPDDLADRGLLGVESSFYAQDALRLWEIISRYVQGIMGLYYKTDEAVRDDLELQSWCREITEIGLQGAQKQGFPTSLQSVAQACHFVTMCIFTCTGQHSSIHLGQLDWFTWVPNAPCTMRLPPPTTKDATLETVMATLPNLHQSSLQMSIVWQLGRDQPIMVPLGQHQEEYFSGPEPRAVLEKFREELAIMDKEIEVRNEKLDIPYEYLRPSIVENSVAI
Assay type: biochemical
Description: The isothiazolones of Formula I are also effective for treating inflammation and atherosclerosis. A characteristic feature of atherosclerosis is the accumulation of cholesteryl ester engorged from foam cells. Foam cells are derived from circulating monocytes which invade artery walls in response to hypercholesterolemia, and mature into tissue macrophages. […] Specifically, representative compounds were evaluated by the methods described by Auerbach, et al., Analytical Biochemistry, 1992;201:375-380. Two in vitro assays were utilized, both utilizing rabbit reticulocyte 15-LO, and linoleic acid as substrate, to enzymatically produce a peroxide oxidation product known as 13(S)-HPODE. N-Benzoyl leucomethylene blue was utilized as a colorimetric reagent for detection and quantification of the peroxide formation. Also, HPLC was utilized to quantify the oxidation following incubation at 4° C. for 10 minutes.
Table 3 gives the concentration of compound required to inhibit 50% of the activity of 15-LO (IC50) when measured by the HPLC method of Auerbach, et al. Table 4 gives the percent inhibition of 15-LO activity when evaluated by the colorimetric method.

| SMILES | IC50 [nM] |
| --- | --- |
| O=c1c2cnc(-c3ccccc3)nc2sn1Cc1ccccn1 [Example 29, 6-phenyl-2-pyridin-2-ylmethyl-isothiazolo[5,4-d] pyrimidin-3-one] | 390 |
| O=c1c2cnc(N3CCCCC3)nc2sn1CCc1ccccn1 [Example 31, 6-Piperidin-1-yl-2-(2-pyridin-2-yl-ethyl)-isothiazolo [5,4-d]pyrimidin-3-one] | 1300 |
| O=c1[nH]sc2nc(N3CCCCC3)ncc12 [Example 32, 6-Piperidin-1-yl-isothiazolo[5,4-d]pyrimidin-3-one] | 3200 |
| O=c1c2cnc(N3CCOCC3)nc2sn1CCN1CCCCC1 [Example 33, 6-Morpholin-4-yl-2-(2-piperidin-1-yl-ethyl)-isothiazolo [5,4-d]pyrimidin-3-one] | 120 |
| CN(C)c1ncc2c(=O)n(CCN3CCCCC3)sc2n1 [Example 35, 6-Dimethylamino-2-(2-piperidin-1-yl-ethyl)-isothiazolo [5,4-d]pyrimidin-3-one] | 160 |

More lines, now with the values ahead:

| IC50 [nM] | SMILES |
| --- | --- |
| 1700 | CN(C)c1ncc2c(=O)n(CCc3ccccn3)sc2n1 [Example 34, 6-Dimethylamino-2-(2-pyridin-2-yl-ethyl)-isothiazolo [5,4-d]pyrimidin-3-one] |
| 760 | O=c1c2cnc(-c3ccccc3)nc2sn1CCc1ccccc1 [Example 28, 2-Phenethyl-6-phenyl-isothiazolo[5,4-d]pyrimidin-3-one] |
| 400 | CN(C)c1ncc2c(=O)n(Cc3ccccn3)sc2n1 [Example 23, 6-(Dimethylamino)-2-(2-pyridinylmethyl)isothiazolo [5,4-d]pyrimidin-3-(2H)-one] |
| 300 | O=c1c2cnc(-c3ccccc3)nc2sn1Cc1ccccc1 [Example 24, 2-Benzyl-6-phenyl-isothiazolo[5,4-d]pyrimidin-3-one] |
| 290 | O=c1c2cnc(-c3ccccc3)nc2sn1CCc1ccccn1 [Example 30, 6-phenyl-2-(2-pyridin-2-yl-ethyl)-isothiazolo[5,4-d] pyrimidin-3-one] |
| 270 | O=c1c2cnc(-c3ccccc3)nc2sn1CCN1CCOCC1 [Example 27, 2-(2-Morpholin-4-yl-ethyl)-6-phenyl-isothiazolo[5,4-d) pyrimidin-3-one] |

What follows are molecules tested against T2, HIV-1 Nucleocapsid Protein (NCp7) (Human immunodeficiency virus type 1 group M subtype B, UniProt P12493) (assay: Fluorescence-based (TSQ) assay of zinc ejection from purified HIV-1 NCp7). Conditions: 10 μM compound, 2.8 μM NCp7, 47 μM TSQ, pH 7.4, 26° C., 90 minutes.
T2 construct: The NCp7 protein containing 2 Zn-fingers and 2 Zn ions
Assay type: biochemical
Source text: The compounds of the present invention cause the extrusion of zinc from the nucleocapsid protein (NCp7) of HIV-1. The NC protein is highly conserved among all retroviruses (South T., Blake P., et al., Biochemistry, 1990;;29:7786) and is essential for viral infectivity (Aldovini A. and Young R., J. Virology, 1990;64:1920 and Gorelick R., Nigida S., et al., J. Virology, 1990;64:3207). The zinc is normally held in NC proteins by 1 or 2 zinc fingers. In the case of HIV-1, 2 zinc fingers are present (Summers M., South T., et al., Biochemistry, 1990;29:329) and are involved specifically with the PSI site on viral RNA which controls the packaging of viral RNA. Interference of this packaging causes the formation of non-infectious virions (Dannull J., Surovoy A., et al., EMBO, 1994;13:1525). It has previously been shown that compounds that cause zinc extrusion have potent anti-HIV activity in multiple cell lines and against all retroviruses (Rice W., Schaeffer C., et al., Nature, 1993;361:473).
A fluorescence-based assay has been developed to monitor the ejection of zinc from purified HIV-1 NCp7. The fluorophore, N-(6-methoxy-8-quinolyl)-p-toluenesulfonamide (TSQ), has an increased fluorescent signal upon bonding zinc ion in solution. The NCp7 protein containing 2 Zn-fingers and 2 Zn ions is incubated with drug causing the extrusion of Zn ions. The released Zn is then sequestered by the TSQ and the increased fluorescence monitored relative to control. The assay was performed as follows: 10 μM compound was added to 2.8 μM NCp7 and 47 μM TSQ in 20 μL of pH 7.4 buffer at 26° C. for 90 minutes. Fluorescence (excitation 355 nm emission 400 nm) was monitored versus time. Controls were the NCp7 under assay conditions without drug, and apo NCp7 (no Zn) with drug. The % Zn extrusion was calculated based on the actual fluorescence measured divided by the fluorescence of all theoretical Zn extruded (5.6 μM)×100.
Table 1 below presents the results of testing several of the invention compounds in zinc extrusion assay described above. The compounds were evaluated for their ability to cause the extrusion of zinc from nucleocapsid protein NCp7 (expressed as % relative to control).

| SMILES | % Zn Extrusion Relative to Control [%] |
| --- | --- |
| O=C(O)Cn1sc2ccccc2c1=O [Example 13, 2-(3-Oxo-3h-benzo[d]isothiazol-2-yl) acetic acid] | 75 |
| O=c1c2ccccc2sn1-c1ccccc1 [Example 15, 2-Phenyl-3-oxo-3h-benz[d]isothiazole] | 97 |
| Cc1ccnc(-n2sc3ccccc3c2=O)c1 [Example 18, 2-(4-Methylpyridin-2-yl)-3-oxo-3h-benzo[d]isothiazole] | 100 |
| NS(=O)(=O)c1ccc(NC(=O)c2ccccc2S)cc1 [Preparation 29, 2-Mercapto-N-(4-sulfamoylphenyl)benzamide] | 5.8 |
